Results: PubChem BioAssay (NCI)
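GI50 is the concentration that inhibits growth by half. TGI: total growth inhibition.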

Columns and labels:
Assay in all cases: NCI tumour cell line growth inhibition, 384-well format
LOX IMVI melanoma = test system: LOX IMVI melanoma
SK-MEL-28 melanoma = test system: SK-MEL-28 melanoma
PC-3 prostate = test system: PC-3 prostate
M14 melanoma = test system: M14 melanoma
SF-295 CNS = test system: SF-295 CNS
SK-MEL-5 melanoma = test system: SK-MEL-5 melanoma
SF-539 CNS = test system: SF-539 CNS
HOP-62 NSCLC = test system: HOP-62 NSCLC
NCI-H226 lung = test system: NCI-H226 lung
UACC-257 melanoma = test system: UACC-257 melanoma
ACHN renal = test system: ACHN renal
KM12 colon = test system: KM12 colon
NCI-H23 lung = test system: NCI-H23 lung
MDA-MB-435 melanoma = test system: MDA-MB-435 melanoma
OVCAR-5 ovarian = test system: OVCAR-5 ovarian
IGROV1 ovarian = test system: IGROV1 ovarian
HL-60(TB) leukemia = test system: HL-60(TB) leukemia
RXF 393 renal = test system: RXF 393 renal
HCT-15 colon = test system: HCT-15 colon
786-0 renal = test system: 786-0 renal
TK-10 renal = test system: TK-10 renal
T-47D breast = test system: T-47D breast
NCI/ADR-RES ovarian = test system: NCI/ADR-RES ovarian
SR leukemia = test system: SR leukemia
MALME-3M melanoma = test system: MALME-3M melanoma
SW-620 colon = test system: SW-620 colon
OVCAR-4 ovarian = test system: OVCAR-4 ovarian
A549 NSCLC = test system: A549 NSCLC
MDA-MB-231 breast = test system: MDA-MB-231 breast
K-562 leukemia = test system: K-562 leukemia
DU-145 prostate = test system: DU-145 prostate
U251 glioblastoma = test system: U251 glioblastoma
CCRF-CEM leukemia = test system: CCRF-CEM leukemia
A498 renal = test system: A498 renal
SF-268 CNS = test system: SF-268 CNS
UO-31 renal = test system: UO-31 renal
OVCAR-3 ovarian = test system: OVCAR-3 ovarian
COLO 205 colon = test system: COLO 205 colon
OVCAR-8 ovarian = test system: OVCAR-8 ovarian
NCI-H460 NSCLC = test system: NCI-H460 NSCLC
HCC-2998 colon = test system: HCC-2998 colon
SK-MEL-2 melanoma = test system: SK-MEL-2 melanoma
UACC-62 melanoma = test system: UACC-62 melanoma
SK-OV-3 ovarian = test system: SK-OV-3 ovarian
CAKI-1 renal = test system: CAKI-1 renal
HT29 colon = test system: HT29 colon
RPMI-8226 leukemia = test system: RPMI-8226 leukemia
SN12C renal = test system: SN12C renal
SNB-19 CNS = test system: SNB-19 CNS
BT-549 breast = test system: BT-549 breast
NCI-H522 lung = test system: NCI-H522 lung
HCT-116 colon = test system: HCT-116 colon
MOLT-4 leukemia = test system: MOLT-4 leukemia
MDA-MB-468 breast = test system: MDA-MB-468 breast
MCF7 breast = test system: MCF7 breast
NCI-H322M lung = test system: NCI-H322M lung
HOP-92 NSCLC = test system: HOP-92 NSCLC

## CC1(C)CCC2(CC1)N[C@@H](C(=O)N[C@@H]1CC[C@@H](C(N)=O)OC1)[C@H](c1ccnc(Cl)c1F)[C@]21C(=O)Nc2cc(Cl)ccc21
LOX IMVI melanoma
  GI50: 345 nM
  TGI: 1880 nM
SK-MEL-28 melanoma
  GI50: 1710 nM
  TGI: 3150 nM
PC-3 prostate
  GI50: 1840 nM
  TGI: 3330 nM
M14 melanoma
  GI50: 47.3 nM
  TGI: 2030 nM
SF-295 CNS
  GI50: 1740 nM
  TGI: 3290 nM
SK-MEL-5 melanoma
  GI50: 668 nM
  TGI: 2070 nM
SF-539 CNS
  GI50: 1660 nM
  TGI: 3120 nM
HOP-62 NSCLC
  GI50: 1850 nM
  TGI: 3780 nM
NCI-H226 lung
  GI50: 11.8 nM
  TGI: 65.9 nM
UACC-257 melanoma
  GI50: 94.6 nM
  TGI: 490 nM
ACHN renal
  GI50: 28.5 nM
  TGI: 650 nM
KM12 colon
  GI50: 1980 nM
  TGI: 3820 nM
NCI-H23 lung
  GI50: 2040 nM
  TGI: 5350 nM
MDA-MB-435 melanoma
  GI50: 1810 nM
  TGI: 3440 nM
OVCAR-5 ovarian
  GI50: 2280 nM
  TGI: 5340 nM
IGROV1 ovarian
  GI50: 224 nM
  TGI: 2440 nM
HL-60(TB) leukemia
  GI50: 2110 nM
  TGI: 3550 nM
RXF 393 renal
  GI50: 1420 nM
  TGI: 2840 nM
HCT-15 colon
  GI50: 1910 nM
  TGI: 3690 nM
786-0 renal
  GI50: 2020 nM
  TGI: 4300 nM
TK-10 renal
  GI50: 2500 nM
  TGI: 7330 nM
T-47D breast
  GI50: 1630 nM
  TGI: 4100 nM
NCI/ADR-RES ovarian
  GI50: 14000 nM
  TGI: 27200 nM
SR leukemia
  GI50: < 10 nM
MALME-3M melanoma
  GI50: 77.7 nM
  TGI: 1040 nM
SW-620 colon
  GI50: 3320 nM
  TGI: 11100 nM
OVCAR-4 ovarian
  GI50: 1910 nM
  TGI: 5550 nM
A549 NSCLC
  GI50: 74.6 nM
  TGI: 1300 nM
MDA-MB-231 breast
  GI50: 1820 nM
  TGI: 3400 nM
K-562 leukemia
  GI50: 1640 nM
  TGI: 3030 nM
DU-145 prostate
  GI50: 2660 nM
  TGI: 6740 nM
U251 glioblastoma
  GI50: 2080 nM
  TGI: 4450 nM
CCRF-CEM leukemia
  GI50: 1920 nM
  TGI: 3430 nM
A498 renal
  GI50: 24.4 nM
  TGI: 971 nM
SF-268 CNS
  GI50: 2120 nM
  TGI: 4560 nM
UO-31 renal
  GI50: 78.5 nM
  TGI: 335 nM
OVCAR-3 ovarian
  GI50: 1660 nM
  TGI: 3220 nM
COLO 205 colon
  GI50: 1910 nM
  TGI: 3420 nM
OVCAR-8 ovarian
  GI50: 2400 nM
  TGI: 5610 nM
NCI-H460 NSCLC
  GI50: 31.2 nM
  TGI: 1130 nM
HCC-2998 colon
  GI50: 1340 nM
  TGI: 2700 nM
SK-MEL-2 melanoma
  GI50: 1880 nM
  TGI: 3320 nM
UACC-62 melanoma
  GI50: < 10 nM
  TGI: 1070 nM
SK-OV-3 ovarian
  GI50: 1800 nM
  TGI: 3670 nM
CAKI-1 renal
  GI50: < 10 nM
  TGI: 347 nM
HT29 colon
  GI50: 1730 nM
  TGI: 3240 nM
RPMI-8226 leukemia
  GI50: 1660 nM
  TGI: 3040 nM
SN12C renal
  GI50: 2670 nM
  TGI: 7980 nM
SNB-19 CNS
  GI50: 2350 nM
  TGI: 5150 nM
BT-549 breast
  GI50: 1740 nM
  TGI: 3780 nM
NCI-H522 lung
  GI50: 1580 nM
  TGI: 3020 nM
HCT-116 colon
  GI50: 35.2 nM
  TGI: 1390 nM
MOLT-4 leukemia
  GI50: < 10 nM
  TGI: 11.9 nM
MDA-MB-468 breast
  GI50: 1930 nM
  TGI: 3710 nM
MCF7 breast
  GI50: 31.2 nM
  TGI: 741 nM
NCI-H322M lung
  GI50: 2300 nM
  TGI: 5990 nM
HOP-92 NSCLC
  GI50: 1710 nM
  TGI: 3530 nM
